Results taken from ChEMBL document CHEMBL5137065, “Recent Advances with KDM4 Inhibitors and Potential Applications” (J Med Chem, 2022).
Each block holds one compound with its values, some of them ahead of it.

Key:
[1] = target: T1, Lysine-specific demethylase 4A (Homo sapiens, UniProt O75164); test: Inhibition of recombinant HQ5-Halo-tagged KDM4A tudor domain (unknown origin) measured by fluorescence polarization assay
T1 sequence (O75164 whole entry): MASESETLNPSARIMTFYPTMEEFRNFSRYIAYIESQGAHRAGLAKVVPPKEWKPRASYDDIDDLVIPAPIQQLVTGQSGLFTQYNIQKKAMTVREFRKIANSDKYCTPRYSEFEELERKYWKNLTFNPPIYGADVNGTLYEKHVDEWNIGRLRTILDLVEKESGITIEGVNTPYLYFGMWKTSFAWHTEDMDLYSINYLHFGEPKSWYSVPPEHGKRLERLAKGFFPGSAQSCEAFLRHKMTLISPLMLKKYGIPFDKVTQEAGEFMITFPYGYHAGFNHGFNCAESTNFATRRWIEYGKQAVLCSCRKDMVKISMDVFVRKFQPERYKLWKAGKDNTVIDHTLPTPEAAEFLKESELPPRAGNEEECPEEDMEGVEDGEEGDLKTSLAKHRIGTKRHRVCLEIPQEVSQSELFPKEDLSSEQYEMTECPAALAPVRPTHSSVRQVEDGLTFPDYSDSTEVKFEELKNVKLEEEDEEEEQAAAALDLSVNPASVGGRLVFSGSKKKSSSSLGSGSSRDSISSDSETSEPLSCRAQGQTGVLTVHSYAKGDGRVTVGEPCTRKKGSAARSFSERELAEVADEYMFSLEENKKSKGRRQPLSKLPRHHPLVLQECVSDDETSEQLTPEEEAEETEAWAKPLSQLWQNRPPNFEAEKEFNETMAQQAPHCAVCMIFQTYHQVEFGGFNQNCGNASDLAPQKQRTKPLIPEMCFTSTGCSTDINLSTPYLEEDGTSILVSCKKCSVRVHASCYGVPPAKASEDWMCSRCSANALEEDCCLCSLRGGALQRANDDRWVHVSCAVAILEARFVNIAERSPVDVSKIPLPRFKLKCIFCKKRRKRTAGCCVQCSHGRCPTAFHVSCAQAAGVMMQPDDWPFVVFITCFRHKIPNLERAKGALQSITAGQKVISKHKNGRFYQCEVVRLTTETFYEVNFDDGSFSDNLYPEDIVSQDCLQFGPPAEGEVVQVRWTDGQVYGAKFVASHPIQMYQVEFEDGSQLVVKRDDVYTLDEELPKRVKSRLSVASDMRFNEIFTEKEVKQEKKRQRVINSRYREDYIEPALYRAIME

[2] = target: T2, Lysine-specific demethylase 4C (Homo sapiens, UniProt Q9H3R0); test: Inhibition of KDM4C (unknown origin) using H3K9me3 as substrate and measured by antibody-based assay
T2 sequence (Q9H3R0 whole entry): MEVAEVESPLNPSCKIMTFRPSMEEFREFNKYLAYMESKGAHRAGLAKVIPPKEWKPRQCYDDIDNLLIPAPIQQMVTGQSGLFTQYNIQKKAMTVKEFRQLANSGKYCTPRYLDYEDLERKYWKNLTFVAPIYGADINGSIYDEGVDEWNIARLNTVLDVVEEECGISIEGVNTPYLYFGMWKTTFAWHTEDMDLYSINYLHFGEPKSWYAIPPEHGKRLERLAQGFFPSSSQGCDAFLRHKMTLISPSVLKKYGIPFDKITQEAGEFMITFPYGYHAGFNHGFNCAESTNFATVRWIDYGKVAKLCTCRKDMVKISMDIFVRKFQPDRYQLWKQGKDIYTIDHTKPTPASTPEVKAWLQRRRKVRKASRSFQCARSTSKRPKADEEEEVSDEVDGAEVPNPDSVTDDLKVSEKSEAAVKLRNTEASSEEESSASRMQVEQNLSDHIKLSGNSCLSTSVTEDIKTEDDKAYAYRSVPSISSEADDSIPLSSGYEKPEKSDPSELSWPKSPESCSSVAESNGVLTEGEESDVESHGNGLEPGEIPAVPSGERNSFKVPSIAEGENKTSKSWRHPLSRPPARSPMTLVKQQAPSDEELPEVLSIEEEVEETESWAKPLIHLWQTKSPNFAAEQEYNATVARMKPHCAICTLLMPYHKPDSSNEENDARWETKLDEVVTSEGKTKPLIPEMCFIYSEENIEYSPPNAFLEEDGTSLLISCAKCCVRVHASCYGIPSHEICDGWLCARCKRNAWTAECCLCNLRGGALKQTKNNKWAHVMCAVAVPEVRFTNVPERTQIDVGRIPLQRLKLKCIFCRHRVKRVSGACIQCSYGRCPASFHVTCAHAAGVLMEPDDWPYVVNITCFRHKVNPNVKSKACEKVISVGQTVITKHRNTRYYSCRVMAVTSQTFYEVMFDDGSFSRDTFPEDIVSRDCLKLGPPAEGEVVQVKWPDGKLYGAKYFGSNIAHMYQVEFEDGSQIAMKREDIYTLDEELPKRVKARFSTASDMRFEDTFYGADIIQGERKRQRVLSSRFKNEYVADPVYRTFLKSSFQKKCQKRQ

LNCaP = test: Antiproliferative activity against human LNCaP cells measured by Alamarblue assay; assay type: functional
DU-145 = test: Antiproliferative activity against human DU-145 cells measured by Alamarblue assay; assay type: functional
[3] = Inhibition of KDM4 (unknown origin) measured by ESI-TOF MS assay; parameters: species or system Homo sapiens
[4] = target: T1, Lysine-specific demethylase 4A; test: Inhibition of human KDM4A (1 to 350 residues) measured by ELISA assay
[5] = target: T3, Lysine-specific demethylase 4B (Homo sapiens, UniProt O94953); test: Inhibition of KDM4B (unknown origin) measured by ELISA assay
T3 sequence (O94953 whole entry): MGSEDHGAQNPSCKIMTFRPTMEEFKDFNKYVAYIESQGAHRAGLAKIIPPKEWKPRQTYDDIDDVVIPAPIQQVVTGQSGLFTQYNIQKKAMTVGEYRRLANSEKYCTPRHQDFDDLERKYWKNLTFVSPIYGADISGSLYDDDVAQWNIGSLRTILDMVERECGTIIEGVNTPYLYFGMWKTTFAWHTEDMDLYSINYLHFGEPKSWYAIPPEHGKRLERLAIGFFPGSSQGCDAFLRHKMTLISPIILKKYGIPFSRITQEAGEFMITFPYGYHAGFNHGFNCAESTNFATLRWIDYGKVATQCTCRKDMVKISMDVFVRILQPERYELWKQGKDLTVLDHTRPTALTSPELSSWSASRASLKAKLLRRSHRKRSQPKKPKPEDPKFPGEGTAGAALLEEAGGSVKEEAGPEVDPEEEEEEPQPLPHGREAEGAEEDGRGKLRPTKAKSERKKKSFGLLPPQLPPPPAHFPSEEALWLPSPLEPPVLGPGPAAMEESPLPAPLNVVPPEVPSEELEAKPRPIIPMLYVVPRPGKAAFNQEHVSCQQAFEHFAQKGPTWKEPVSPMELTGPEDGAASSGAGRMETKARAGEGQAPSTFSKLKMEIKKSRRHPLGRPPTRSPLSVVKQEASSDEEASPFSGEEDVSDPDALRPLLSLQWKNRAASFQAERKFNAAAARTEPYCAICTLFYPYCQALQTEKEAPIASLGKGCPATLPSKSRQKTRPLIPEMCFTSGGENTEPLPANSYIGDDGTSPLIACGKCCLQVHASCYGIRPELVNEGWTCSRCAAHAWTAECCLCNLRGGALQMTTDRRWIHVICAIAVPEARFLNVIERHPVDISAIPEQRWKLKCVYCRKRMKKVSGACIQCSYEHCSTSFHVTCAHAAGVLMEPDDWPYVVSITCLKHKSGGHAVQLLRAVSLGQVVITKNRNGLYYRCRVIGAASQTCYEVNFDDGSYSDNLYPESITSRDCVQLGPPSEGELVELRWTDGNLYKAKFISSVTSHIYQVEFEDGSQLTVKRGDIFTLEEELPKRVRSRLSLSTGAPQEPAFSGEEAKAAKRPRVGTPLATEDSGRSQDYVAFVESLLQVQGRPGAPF

[6] = Inhibition of KDM4 in human MCF7 cells assessed as induction of H3K9me3 accumulation measured by immunostaining method; assay type: cell-based
KYSE-150 cell line = test: Growth inhibition of human KYSE-150 cells measured after 48 hrs; assay type: functional
[7] = Inhibition of KDM4 in human KYSE-150 cells assessed as induction of H3K9me3 accumulation measured by immunostaining method; assay type: cell-based, KYSE-150 cell line
[8] = Lipophilicity, logD of compound at pH 7.4 by Chromatography; assay type: physicochemical; conditions: buffer
[9] = target: T3, Lysine-specific demethylase 4B; test: Inhibition of KDM4B (unknown origin) using H3K9me3 as substrate and measured by LANCE TR-FRET assay
[10] = target: T4, Lysine-specific demethylase 4D (Homo sapiens, UniProt Q6B0I6); test: Inhibition of KDM4D (unknown origin) using H3K9me3 as substrate and measured by LANCE TR-FRET assay
T4 sequence (Q6B0I6 whole entry): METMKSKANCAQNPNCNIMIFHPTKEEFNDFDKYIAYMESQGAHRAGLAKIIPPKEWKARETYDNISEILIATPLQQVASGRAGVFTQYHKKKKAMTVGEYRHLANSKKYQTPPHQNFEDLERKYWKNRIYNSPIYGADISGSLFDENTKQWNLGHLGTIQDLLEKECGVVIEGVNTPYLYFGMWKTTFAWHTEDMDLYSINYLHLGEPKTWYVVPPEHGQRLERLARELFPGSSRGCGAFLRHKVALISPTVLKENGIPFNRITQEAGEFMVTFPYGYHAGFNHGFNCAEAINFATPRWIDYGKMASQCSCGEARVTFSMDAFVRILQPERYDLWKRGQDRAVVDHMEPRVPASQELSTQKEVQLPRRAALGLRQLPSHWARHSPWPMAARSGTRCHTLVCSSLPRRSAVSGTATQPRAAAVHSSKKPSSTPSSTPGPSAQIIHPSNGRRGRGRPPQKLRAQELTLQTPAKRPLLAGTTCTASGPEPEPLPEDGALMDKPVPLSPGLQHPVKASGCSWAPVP

[11] = target: T1, Lysine-specific demethylase 4A; test: Inhibition of KDM4A (unknown origin) using H3K9me3 as substrate and measured by LANCE TR-FRET assay
[12] = target: T2, Lysine-specific demethylase 4C; test: Inhibition of KDM4C (unknown origin) using H3K9me3 as substrate and measured by LANCE TR-FRET assay
[13] = target: T2, Lysine-specific demethylase 4C; test: Inhibition of N-terminal GST-tagged human KDM4C (2 to 372 residues) expressed in baculovirus-infected Sf9 cells measured by high-throughput mass spectrometry assay
[14] = target: T4, Lysine-specific demethylase 4D; test: Inhibition of KDM4D (unknown origin) measured by AlphaLisa-based screening assay
[15] = target: T1, Lysine-specific demethylase 4A; test: Inhibition of KDM4A (unknown origin) measured by AlphaLisa-based screening assay
[16] = Antiproliferative activity against human neuroblastoma cells after 3 days by PrestoBlue assay; assay type: functional, cell-based; conditions: Neuroblastoma cell, 72 h
[17] = target: T3, Lysine-specific demethylase 4B; test: Inhibition of GST-tagged KDM4B (unknown origin) using H3K9(me3)-biotin peptide as substrate incubated for 30 mins and measured after 15 mins by TR-FRET assay
[18] = target: T5, Lysine-specific demethylase 4E (Homo sapiens, UniProt B2RXH2)
T5 sequence (B2RXH2 whole entry): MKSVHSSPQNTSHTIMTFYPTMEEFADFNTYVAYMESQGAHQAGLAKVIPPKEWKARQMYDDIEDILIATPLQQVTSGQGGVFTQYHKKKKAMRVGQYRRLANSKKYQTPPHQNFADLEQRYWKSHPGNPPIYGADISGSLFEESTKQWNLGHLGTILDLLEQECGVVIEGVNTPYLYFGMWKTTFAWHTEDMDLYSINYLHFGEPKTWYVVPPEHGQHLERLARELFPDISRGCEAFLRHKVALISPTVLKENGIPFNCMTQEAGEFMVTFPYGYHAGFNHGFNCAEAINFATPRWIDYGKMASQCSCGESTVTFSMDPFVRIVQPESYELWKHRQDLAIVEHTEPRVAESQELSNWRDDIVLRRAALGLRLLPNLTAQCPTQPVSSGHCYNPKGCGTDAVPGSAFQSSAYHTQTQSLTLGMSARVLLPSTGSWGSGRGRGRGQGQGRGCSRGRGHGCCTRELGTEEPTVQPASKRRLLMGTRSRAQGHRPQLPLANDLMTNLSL

IC50 [1]: 26 µM
Structure (SMILES): CCCCc1oc2ccccc2c1C(=O)c1cc(I)c(OCCN)c(I)c1

IC50 [2]: 30 µM
Structure (SMILES): CC(C)C(=O)NC(c1ccco1)c1ccc2cccnc2c1O (stereo not drawn)

GI50 (LNCaP): 8 µM
GI50 (DU-145): 8 µM
Structure (SMILES): Cc1nn(-c2nc3ccccc3[nH]2)c(O)c1-c1ccccc1

IC50 [3]: 4.3 µM
Structure (SMILES): O=C(O)/C=C/C(=O)N(O)CCCCNCc1ccc(COC(=O)Nc2cccc3ccccc23)cc1

IC50 [4]: 0.29 µM
IC50 [5]: 0.29 µM
Structure (SMILES): Clc1ccc(N/N=C(\c2ccccc2)c2ccccn2)nc1

EC50 [6]: 6.3 µM
EC50 [7]: 8.6 µM
Structure (SMILES): COC(=O)/C=C/C(=O)N(O)CCCCNCc1ccc(COC(=O)Nc2cccc3ccccc23)cc1
GI50 (KYSE-150 cell line): 5.1 µM

chromatographic logD [8]: 1.8
Structure (SMILES): O=c1[nH]c(Oc2cnn(Cc3ccccc3)c2)nc2cnccc12

chromatographic logD [8]: 0.1
Structure (SMILES): O=C(O)c1ccncc1NCc1ccco1

IC50 [9]: 0.035 µM
IC50 [10]: 0.035 µM
IC50 [11]: 0.035 µM
Structure (SMILES): CN(c1ccccc1)c1ccc2c(c1)CCC[C@H]2CNc1cnccc1C(=O)O

IC50 [1]: 26 µM
Structure (SMILES): CCCCc1oc2ccccc2c1C(=O)c1cc(I)c(OCC[N+](C)(C)C)c(I)c1

IC50 [12]: 1.4 µM
Structure (SMILES): CNc1cnccc1C(=O)O

Ki [13]: 0.031 µM
Structure (SMILES): O=C(O)c1ccnc(-c2ccc[nH]2)c1

IC50 [14]: 0.023 µM
IC50 [15]: > 100 µM
Structure (SMILES): CC(C)(C)OC(=O)C[C@@H]1CCN(C(c2ccc(-c3ccncc3)cc2)c2cc3c(cc2O)OCO3)C1 (stereo partly drawn)

IC50 [17]: 3.8 µM
Structure (SMILES): Cc1cc(C2CCCCC2)n(O)c(=O)c1 [CICLOPIROX]
IC50 [16]: 0.2 µM

IC50 [18]: 28.4 µM
Structure (SMILES): CC(/C=C/C(=O)NO)=C\[C@@H](C)C(=O)c1ccc(N(C)C)cc1 [TRICHOSTATIN]
